≈ marks a conversion by molar mass, not a printed value.
Tested on: Mycobacterium tuberculosis
Assay: Antimycobacterial activity against Mycobacterium tuberculosis H37Rv assessed as growth inhibition after 6 days by resazurin MIC assay
Format: functional, organism-based
Conditions: for IC50 / IC90 / MIC: Mycobacterium tuberculosis, H37Rv, 144 h

Row | SMILES | growth inhibition (GI) | IC50 | IC90 | MIC
1 | O=C(c1ccncc1)n1nc(-c2ccccc2[N+](=O)[O-])cc1-c1cc2ccccc2oc1=O | 67.83% | 1.9 µg/mL (≈ 4.33 µM) | 2.74 µg/mL (≈ 6.25 µM) | 2.5 µg/mL (≈ 5.7 µM)
2 | O=C(c1ccncc1)n1nc(-c2ccc(O)cc2)cc1-c1cc2ccccc2oc1=O | 69.91% | 1.51 µg/mL (≈ 3.69 µM) | 2.85 µg/mL (≈ 6.96 µM) | 2.5 µg/mL (≈ 6.11 µM)
3 | O=C(c1ccncc1)n1nc(-c2ccccc2)cc1-c1cc2ccccc2oc1=O | 73.53% | 1.92 µg/mL (≈ 4.88 µM) | 2.26 µg/mL (≈ 5.74 µM) | 2.5 µg/mL (≈ 6.35 µM)
4 | COc1ccc(-c2cc(-c3cc4ccccc4oc3=O)n(C(=O)c3ccncc3)n2)cc1 | 66.67% | 1.21 µg/mL (≈ 2.86 µM) | 1.35 µg/mL (≈ 3.19 µM) | 2.5 µg/mL (≈ 5.9 µM)
5 | O=C(c1ccncc1)n1nc(-c2ccc(Cl)cc2)cc1-c1cc2ccccc2oc1=O | 75.39% | 0.75 µg/mL (≈ 1.75 µM) | 1.22 µg/mL (≈ 2.85 µM) | 1.25 µg/mL (≈ 2.92 µM)
6 | CN(C)c1ccc(-c2cc(-c3cc4ccccc4oc3=O)n(C(=O)c3ccncc3)n2)cc1 | 73.82% | 1.21 µg/mL (≈ 2.77 µM) | 2.3 µg/mL (≈ 5.27 µM) | 2.5 µg/mL (≈ 5.73 µM)
7 | O=C(c1ccncc1)n1nc(-c2ccc(Cl)cc2Cl)cc1-c1cc2ccccc2oc1=O | 69.09% | 0.74 µg/mL (≈ 1.6 µM) | 1.46 µg/mL (≈ 3.16 µM) | 1.25 µg/mL (≈ 2.7 µM)
8 | O=C(c1ccncc1)n1nc(-c2cccc([N+](=O)[O-])c2)cc1-c1cc2ccccc2oc1=O | 65.39% | 0.89 µg/mL (≈ 2.03 µM) | 1.67 µg/mL (≈ 3.81 µM) | 1.25 µg/mL (≈ 2.85 µM)
9 | Cc1ccc(-c2cc(-c3cc4ccccc4oc3=O)n(C(=O)c3ccncc3)n2)cc1 | 62.63% | 2.46 µg/mL (≈ 6.04 µM) | 2.69 µg/mL (≈ 6.6 µM) | 5 µg/mL (≈ 12.3 µM)
10 | COc1cccc(-c2cc(-c3cc4ccccc4oc3=O)n(C(=O)c3ccncc3)n2)c1 | 65.14% | 1.17 µg/mL (≈ 2.76 µM) | 1.29 µg/mL (≈ 3.05 µM) | 1.25 µg/mL (≈ 2.95 µM)
11 | O=C(c1ccncc1)n1nc(-c2ccc(F)cc2)cc1-c1cc2ccccc2oc1=O | 80.09% | 0.41 µg/mL (≈ 0.997 µM) | 0.73 µg/mL (≈ 1.77 µM) | 0.625 µg/mL (≈ 1.52 µM)
12 | NNC(=O)c1ccncc1 [ISONIAZID] |  |  |  | 0.06 µg/mL (≈ 0.438 µM)
13 | CO[C@H]1/C=C/O[C@@]2(C)Oc3c(C)c(O)c4c(O)c(c(/C=N/N5CCN(C)CC5)c(O)c4c3C2=O)NC(=O)/C(C)=C\C=C\[C@H](C)[C@H](O)[C@@H](C)[C@@H](O)[C@@H](C)[C@H](OC(C)=O)[C@@H]1C [RIFAMPIN] |  |  |  | 0.003 µg/mL (≈ 0.00365 µM)

Reference: ChEMBL document CHEMBL3046118, “Coumarinyl pyrazole derivatives of INH: promising antimycobacterial agents” (Med Chem Res, 2013)
